The experiment deals with T1, NMDA-receptor subtype 2B (Rattus norvegicus, UniProt P35439+Q00960).
T1 construct: Membranes were prepared by homogenization of the whole brain minus cerebellum and medulla oblongata; from tissue; host or cells: rat whole brain minus cerebellum and medulla oblongata (membranes)
In words: 3H-Ro 25-6981 binding (displacement) on rat brain membranes. The following applies: displacement of 5 nM 3H-Ro 25-6981, rat whole brain (minus cerebellum and medulla oblongata) membranes, 2 hours at 4° C., Tris-HCl 50 mM pH 7.4. How it is done: ^3H-Ro 25-6981 binding (Ro 25-6981 is [R-(R*,S*)]-α-(4-hydroxy-phenyl)-β-methyl-4-(phenyl-methyl)-1-piperidine propanol)
Male Füllinsdorf albino rats weighing between 150-200 g were used. Membranes were prepared by homogenization of the whole brain minus cerebellum and medulla oblongata with a Polytron (10.000 rpm, 30 seconds), in 25 volumes of a cold Tris-HCl 50 mM, EDTA 10 mM, pH 7.1 buffer. The homogenate was centrifuged at 48,000 g for 10 minutes at 4° C. The pellet was resuspended using the Polytron in the same volume of buffer and the homogenate was incubated at 37° C. for 10 minutes. After centrifugation the pellet was homogenized in the same buffer and frozen at −80° C. for at least 16 hours but not more than 10 days. For the binding assay the homogenate was thawed at 37° C., centrifuged and the pellet was washed three times as above in a Tris-HCl 5 mM, pH 7.4 cold buffer. The final pellet was resuspended in the same buffer and used at a final concentration of […].
^3H-Ro 25-6981 binding experiments were performed using a Tris-HCl 50 mM, pH 7.4 buffer. For displacement experiments 5 nM of ^3H-Ro 25-6981 were used and non specific binding was measured using 10 mM of tetrahydroisoquinoline and usually it accounts for 10% of the total. The incubation time was 2 hours at 4° C. and the assay was stopped by filtration on Whatmann GF/B glass fiber filters (Unifilter-96, Packard, Zürich, Switzerland). The filters were washed 5 times with cold buffer. The radioactivity on the filter was counted on a Packard Top-coullt microplate scintillation counter after addition of […] of microscint 40 (Canberra Packard S.A., Zürich, Switzerland).
The effects of compounds were measured using a minimum of 8 concentrations and repeated at least once. The pooled normalized values were analyzed using a non-linear regression calculation program which provide IC50 with their relative upper and lower 95% confidence limits.

Where a name gives a salt, the structure may show the parent alone.

As a reminder, the IC50 is the concentration that inhibits the measured activity by half. Higher therefore signals weaker potency in that assay.

T1 sequence (Q00960 27-1482, other chains not shown): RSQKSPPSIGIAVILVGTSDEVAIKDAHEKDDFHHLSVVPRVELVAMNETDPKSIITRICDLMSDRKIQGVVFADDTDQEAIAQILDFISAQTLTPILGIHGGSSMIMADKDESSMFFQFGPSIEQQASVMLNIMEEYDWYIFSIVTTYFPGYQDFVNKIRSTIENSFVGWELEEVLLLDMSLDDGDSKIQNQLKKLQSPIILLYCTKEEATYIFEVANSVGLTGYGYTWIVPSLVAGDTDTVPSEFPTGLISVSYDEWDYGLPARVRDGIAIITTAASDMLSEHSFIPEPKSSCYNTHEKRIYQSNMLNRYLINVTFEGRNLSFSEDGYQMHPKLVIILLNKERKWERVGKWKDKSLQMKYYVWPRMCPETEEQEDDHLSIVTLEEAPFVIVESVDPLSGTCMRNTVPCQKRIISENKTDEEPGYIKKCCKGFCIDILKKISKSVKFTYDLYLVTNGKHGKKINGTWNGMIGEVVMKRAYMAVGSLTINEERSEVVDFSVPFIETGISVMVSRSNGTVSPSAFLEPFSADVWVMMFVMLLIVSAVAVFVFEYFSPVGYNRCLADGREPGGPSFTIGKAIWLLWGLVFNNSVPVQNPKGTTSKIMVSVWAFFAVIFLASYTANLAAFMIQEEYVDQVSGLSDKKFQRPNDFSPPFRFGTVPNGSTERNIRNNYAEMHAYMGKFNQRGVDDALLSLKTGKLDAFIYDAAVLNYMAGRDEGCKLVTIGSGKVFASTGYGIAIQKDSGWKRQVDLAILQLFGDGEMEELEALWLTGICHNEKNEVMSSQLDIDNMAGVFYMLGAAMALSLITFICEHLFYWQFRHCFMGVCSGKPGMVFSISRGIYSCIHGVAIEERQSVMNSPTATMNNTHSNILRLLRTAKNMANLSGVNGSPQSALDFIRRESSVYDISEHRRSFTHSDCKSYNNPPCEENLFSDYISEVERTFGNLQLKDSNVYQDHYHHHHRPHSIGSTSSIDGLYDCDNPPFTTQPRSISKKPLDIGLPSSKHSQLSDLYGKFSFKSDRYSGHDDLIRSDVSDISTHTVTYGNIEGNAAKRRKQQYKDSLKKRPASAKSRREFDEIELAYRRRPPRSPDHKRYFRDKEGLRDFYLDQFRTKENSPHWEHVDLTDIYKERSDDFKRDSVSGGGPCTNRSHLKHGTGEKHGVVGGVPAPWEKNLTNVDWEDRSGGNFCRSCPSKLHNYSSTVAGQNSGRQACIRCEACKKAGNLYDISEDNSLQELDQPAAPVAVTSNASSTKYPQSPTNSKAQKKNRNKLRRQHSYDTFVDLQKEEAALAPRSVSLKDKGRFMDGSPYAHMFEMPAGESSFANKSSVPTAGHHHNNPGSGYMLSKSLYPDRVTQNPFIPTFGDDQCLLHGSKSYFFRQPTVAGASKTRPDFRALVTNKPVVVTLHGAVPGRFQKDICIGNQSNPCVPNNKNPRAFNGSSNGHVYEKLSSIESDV

“5-(3-Difluoromethyl-4-fluoro-phenyl)-3-(2-ethyl-imidazol-1-ylethyl)-pyridazine hydrochloride [Example 52]”: the half-inhibitory concentration (IC50) was 26 nM.
As for `Cc1nccn1Cc1cc(-c2ccc(F)c(Cl)c2)cnn1` [Example 1, 5-(3-Chloro-4-fluoro-phenyl)-3-(2-methyl-imidazol-1-yl-methyl)-pyridazine Hydrochloride], the half-maximal inhibitory concentration (IC50) was 21 nM.
`Cc1nccn1Cc1cc(-c2ccc(F)c(C(F)(F)F)c2)cnn1` [Example 3, 5-(4-Fluoro-3-trifluoromethyl-phenyl)-3-(2-methyl-imidazol-1-yl-methyl)-pyridazine hydrochloride] returned an IC50 of 38 nM.
The same measure for `Cc1nccn1Cc1cc(-c2ccc(Cl)c(C(F)(F)F)c2)cnn1` [Example 4, 5-(4-Chloro-3-trifluoromethyl-phenyl)-3-(2-methyl-imidazol-1-yl-methyl)-pyridazine hydrochloride]: 27 nM; for `Cc1nccn1Cc1cc(-c2ccc(F)c(C(F)F)c2)cnn1` [Example 6, 5-(3-Difluoromethyl-4-fluoro-phenyl)-3-(2-methyl-imidazol-1-yl-methyl)-pyridazine hydrochloride]: 17 nM; for `Cc1nccn1Cc1cc(-c2cccc(C(C)(F)F)c2)cnn1` [Example 9, 5-[3-(1,1-Difluoro-ethyl)-phenyl]-3-(2-methyl-imidazol-1-yl-methyl)-pyridazine hydrochloride]: 34 nM.
The same measure for `Cc1nccn1Cc1cc(-c2ccc(F)c(C(C)(F)F)c2)cnn1` [Example 11, 5-[3-(1,1-Difluoro-ethyl)-4-fluoro-phenyl]-3-(2-methyl-imidazol-1-yl-methyl)-pyridazine hydrochloride]: 29 nM; for `Cc1nccn1Cc1cc(-c2ccc3ccccc3c2)cnn1` [Example 12, 3-(2-Methyl-imidazol-1-ylmethyl)-5-naphthalen-2-yl-pyridazine-hydrochloride]: 22 nM; for `Cc1nccn1Cc1cc(-c2ccc(Cl)c(Cl)c2)cnn1` [Example 13, 5-(3,4-Dichloro-phenyl)-3-(2-methyl-imidazol-1-yl-methyl)-pyridazine hydrochloride]: 11 nM.
The same measure for `Cc1nccn1Cc1cc(-c2cccc(C3CC3)c2)cnn1` [Example 14, 5-(3-Cyclopropyl-phenyl)-3-(2-methyl-imidazol-1-yl-methyl)-pyridazine hydrochloride]: 20 nM; for `Cc1nccn1Cc1cc(-c2ccc3sccc3c2)cnn1` [Example 15, 5-Benzo[b]thiophen-5-yl-3-(2-methyl-imidazol-1-yl-methyl)-pyridazine hydrochloride]: 16 nM.
Turning to `Cc1cc(-c2cnnc(Cn3ccnc3C)c2)ccc1F` [Example 16, 5-(4-Fluoro-3-methyl-phenyl)-3-(2-methyl-imidazol-1-yl-methyl)-pyridazine hydrochloride], the IC50 amounted to 10 nM.
The same measure for `Cc1nccn1Cc1cc(-c2cc(F)cc(C(F)F)c2)cnn1` [Example 24, 5-(3-Difluoromethyl-5-fluoro-phenyl)-3-(2-methyl-imidazol-1-yl-methyl)-pyridazine hydrochloride]: 47 nM; for `Cc1nccn1Cc1cc(-c2cccc(C(F)F)c2)cnn1` [Example 25, 5-(3-Difluoromethyl-phenyl)-3-(2-methyl-imidazol-1-yl-methyl)-pyridazine hydrochloride]: 58 nM; for `Cc1nccn1Cc1cc(-c2ccc(Cl)c(C(F)F)c2)cnn1` [Example 26, 5-(4-Chloro-3-difluoromethyl-phenyl)-3-(2-methyl-imidazol-1-yl-methyl)-pyridazine hydrochloride]: 12 nM.
The same measure for `COc1ccc2cc(-c3cnnc(Cn4ccnc4C)c3)ccc2c1` [Example 27, 5-(6-Methoxy-naphthalen-2-yl)-3-(2-methyl-imidazol-1-yl-methyl)-pyridazine hydrochloride]: 44 nM; for `Cc1cc(-c2cnnc(Cn3ccnc3C)c2)ccc1Cl` [Example 30, 5-(4-Chloro-3-methyl-phenyl)-3-(2-methyl-imidazol-1-yl-methyl)-pyridazine hydrochloride]: 7 nM; for `Cc1nccn1Cc1cc(-c2cc(F)cc(C(C)(F)F)c2)cnn1` [Example 31, 5-[3-(1,1-Difluoro-ethyl)-5-fluoro-phenyl]-3-(2-methyl-imidazol-1-yl-methyl)-pyridazine hydrochloride]: 31 nM.
In turn, `Cc1nccn1Cc1cc(-c2cccc(C(C)(C)C)c2)cnn1` [Example 34, 5-(3-tert-Butyl-phenyl)-3-(2-methyl-imidazol-1-yl-methyl)-pyridazine hydrochloride] gave an IC50 of 68 nM.
The same measure for `Cc1nccn1Cc1cc(-c2cccc3ccccc23)cnn1` [Example 35, 3-(2-Methyl-imidazol-1-yl-methyl)-5-naphthalen-1-yl-pyridazine hydrochloride]: 25 nM.
In turn, `COc1cccc2c(-c3cnnc(Cn4ccnc4C)c3)cccc12` [Example 36, 5-(5-Methoxy-naphthalen-1-yl)-3-(2-methyl-imidazol-1-yl-methyl)-pyridazine hydrochloride] displayed an IC50 of 77 nM.
The same measure for `COc1cc(-c2cnnc(Cn3ccnc3C)c2)cc(C(F)(F)F)c1` [Example 38, 5-(3-Methoxy-5-trifluoromethyl-phenyl)-3-(2-methyl-imidazol-1-yl-methyl)-pyridazine hydrochloride]: 54 nM; for `Cc1nccn1Cc1cc(-c2ccc(Cl)c(C(C)(F)F)c2)cnn1` [Example 39, 5-[4-Chloro-3-(1,1-difluoro-ethyl)-phenyl]-3-(2-methyl-imidazol-1-yl-methyl)-pyridazine hydrochloride]: 24 nM; for `COc1cc(-c2cnnc(Cn3ccnc3C)c2)ccc1Cl` [Example 41, 5-(4-Chloro-3-methoxy-phenyl)-3-(2-methyl-imidazol-1-yl-methyl)-pyridazine hydrochloride]: 41 nM.
The same measure for `Cc1nccn1Cc1cc(-c2cccc(C(C)C)c2)cnn1` [Example 42, 5-(3-Isopropyl-phenyl)-3-(2-methyl-imidazol-1-yl-methyl)-pyridazine hydrochloride]: 48 nM.
`Cc1nccn1Cc1cc(-c2ccc3c4c(cccc24)CC3)cnn1` [Example 45, 5-Acenaphthen-5-yl-3-(2-methyl-imidazol-1-yl-methyl)-pyridazine hydrochloride] gave an IC50 of 57 nM.
The same measure for `COc1ccc2ccc(-c3cnnc(Cn4ccnc4C)c3)cc2c1` [Example 48, 5-(7-Methoxy-naphthalen-2-yl)-3-(2-methyl-imidazol-1-yl-methyl)-pyridazine hydrochloride]: 35 nM; for `COc1cc(-c2cnnc(Cn3ccnc3C)c2)c2ccccc2c1` [Example 49, 5-(3-Methoxy-naphthalen-1-yl)-3-(2-methyl-imidazol-1-yl-methyl)-pyridazine hydrochloride]: 34 nM; for `Cc1nccn1Cc1cc(-c2ccc(F)c3ccccc23)cnn1` [Example 50, 5-(4-Fluoro-naphthalen-1-yl)-3-(2-methyl-imidazol-1-yl-methyl)-pyridazine hydrochloride]: 29 nM.
To `Cc1nccn1Cc1cc(-c2cccc(C(F)(F)F)c2F)cnn1` [Example 58, 5-(2-Fluoro-3-trifluoromethyl-phenyl)-3-(2-methyl-imidazol-1-yl-methyl)-pyridazine hydrochloride] belongs 37 nM; to `Cc1nccn1Cc1cc(C2=Cc3ccccc3CC2)cnn1` [Example 68, 5-(3,4-Dihydro-naphthalen-2-yl)-3-(2-methyl-imidazol-1-yl-methyl)-pyridazine hydrochloride], 27 nM.
